Source: patent publication US20210253595A1, “2-Aminopyrimidine Derivative and Preparation Method and Use Thereof” (Etern Biopharma (Shanghai) Co., Ltd., priority 2018, published 2021)

Legend:
[1] = test system: 2HG of fibrosarcoma cell line HT1080 expressing IDH1 mutant IDH1-R132C; experiment: Inhibition of 2HG of fibrosarcoma cell line HT1080; format: cell-based; details: Homo sapiens, HT-1080; HT1080 cells, 48 hours with compound, 2HG in cell supernatant; read-out: HT1080 2HG inhibitory IC50
Description: In this experiment, the inhibitory activity of the compound of the disclosure on the concentration level of 2HG of the fibrosarcoma cell line HT1080 was determined by the following method.
The cells were digested with trypsin and inoculated into a 24 well cell culture plate with a density of 10000 cells/well. The cells were cultured in a 5% CO2 cell incubator at 37° C. After overnight culture, the test compound was added to the cells. The final concentration of DMSO was 0.1%, and DMSO was used as control. The plate was then placed in a cell incubator and cultured for 48 hours.
Detection of 2HG: 2-HG was measured by PicoProbe™ D-2-Hydroxyglutarate (D2HG) Assay Kit of BioVision. 500 uL cell supernatant was taken from each well and added to a 10 kD centrifuge column, 12000 g, and centrifuged for 10 minutes to remove the effect of enzyme activity. […] IC50 value was calculated by GraphPad Prism software.
The inhibition rate of the sample was obtained by the following formula: […]
IC50 value was calculated by GraphPad Prism software.

IDH1 R132C = IDH1 R132C (Homo sapiens, UniProt O75874, R132C); experiment: Effect on IDH1 R132C enzyme activity (NADPH consumption, diaphorase/resazurin fluorescence); format: biochemical; details: 80 ng IDH1 R132C, α-KG 2 mM, NADPH 20 μM, 60 min preincubation
IDH1 R132C, sequence (O75874 whole entry R132C): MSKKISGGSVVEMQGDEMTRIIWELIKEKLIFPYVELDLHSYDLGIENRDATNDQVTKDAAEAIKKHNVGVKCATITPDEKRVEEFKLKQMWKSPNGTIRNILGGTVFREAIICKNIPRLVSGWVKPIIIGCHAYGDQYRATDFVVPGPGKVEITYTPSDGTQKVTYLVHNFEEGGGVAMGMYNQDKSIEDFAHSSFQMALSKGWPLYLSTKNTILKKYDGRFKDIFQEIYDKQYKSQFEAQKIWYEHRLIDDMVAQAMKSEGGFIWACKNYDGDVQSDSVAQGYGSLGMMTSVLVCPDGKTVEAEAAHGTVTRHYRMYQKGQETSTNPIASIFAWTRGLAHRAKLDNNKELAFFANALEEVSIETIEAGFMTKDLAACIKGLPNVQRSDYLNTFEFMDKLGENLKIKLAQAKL
Description: (§1) Test method: The enzyme activity of IDH1 converting α-KG to 2HG was measured by the consumption of NADPH. After the enzymatic reaction finished, the amount of residual NADPH can be reflected by fluorescence signal generated by the addition of catalytically excessive diphhorase and reazurin.
(§2) 50 μL mixed liquid of substrate α-KG and NADPH (final concentration of substrate α-KG was 2 mM, final concentration of NADPH was 20 μM), and the plate was incubated in dark for 60 min at room temperature. Detection reaction: 50 μL 1×detection buffer diluted 0.01 unit diabase and 30 μM resazurin were added into each well, and the mixture was incubated in dark at room temperature for 10 min. […] IC50 value was calculated by GraphPad Prism software.

IDH1 R132H = IDH1 R132H (Homo sapiens, UniProt O75874, R132H); experiment: Effect on IDH1 R132H enzyme activity (NADPH consumption, diaphorase/resazurin fluorescence); format: biochemical; details: 100 ng IDH1 R132H, α-KG 1 mM, NADPH 20 μM, 60 min preincubation
IDH1 R132H, sequence (O75874 whole entry R132H): as the sequence (O75874 whole entry R132C) above, with C132H counted along it
Description: as §1
as §2, with “α-KG was 1 mM, final” for “α-KG was 2 mM, final”, “and the mixture was incubated” for “and the plate was incubated”

Structure (SMILES) | IC50 [1] [nM] | IC50 (IDH1 R132C) [nM] | IC50 (IDH1 R132H) [nM]
N#Cc1ccnc(N2C(=O)CC[C@H]2C(=O)N(c2cncc(F)c2)[C@H](C(=O)NC2CC(F)(F)C2)c2ccccc2Cl)c1 [AG120, reference compound] | 25 | – | –
C[C@H](Nc1nccc(N2C(=O)OC[C@@H]2[C@H](C)F)n1)c1ncn2c1COc1cc(Cl)ccc1-2 [Compound 1, (R)-3-(2-((S)-1-(7-chloro-4H-benzo[b]imidazo[1,5-d][1,4]oxazin-3-yl)ethylamino)pyrimidin-4-yl)-4-((S)-1-fluoroethyl)oxazolidin-2-one] | 60 | < 50 | < 50
C[C@H](Nc1nccc(N2C(=O)OC[C@@H]2[C@H](C)F)n1)c1ncn2c1COc1cc(C(F)(F)F)ccc1-2 [Compound 2, (R)-4-((S)-1-fluoroethyl)-3-(2-(((S)-1-(7-trifluoromethyl-4H-benzo[b]imidazo[1,5-d][1,4]oxazin-3-yl)ethyl)amino)pyrimidin-4-yl)oxazolidin-2-one] | 12 | < 50 | < 50
CC(C)[C@H]1COC(=O)N1c1ccnc(N[C@@H](C)c2ncn3c2CCc2cc(C(F)(F)F)ccc2-3)n1 [Compound 3, (S)-4-isopropyl-3-(2-(((S)-1-(7-trifluoromethyl-4,5-dihydroimidazo[1,5-a]quinolin-3-yl)ethyl)amino)pyrimidin-4-yl)oxazolidin-2-one] | 13 | < 50 | < 50
C[C@H](Nc1nccc(N2C(=O)OC[C@@H]2[C@H](C)F)n1)c1ncn2c1CCc1cc(Cl)ccc1-2 [Compound 4, (R)-3-(2-(((S)-1-(7-chloro-4,5-dihydroimidazo[1,5-a]quinolin-3-yl)ethyl)amino)pyrimidin-4-yl)-4-((S)-1-fluoroethyl)oxazolidin-2-one] | 54 | < 50 | < 50
C[C@H](Nc1nccc(N2C(=O)OC[C@@H]2[C@H](C)F)n1)c1ncn2c1CCc1cc(C(F)(F)F)ccc1-2 [Compound 5, (R)-4-((S)-1-fluoroethyl)-3-(2-(((S)-1-(7-trifluoromethyl-4,5-dihydroimidazo[1,5-a]quinolin-3-yl)ethyl)amino)pyrimidin-4-yl)oxazolidin-2-one] | 16 | < 50 | < 50
C[C@H](Nc1ncc(F)c(N2C(=O)OC[C@@H]2[C@H](C)F)n1)c1ncn2c1CCc1cc(C(F)(F)F)ccc1-2 [Compound 6, (R)-3-(5-fluoro-2-(((S)-1-(7-trifluoromethyl-4,5-dihydroimidazo[1,5-a]quinolin-3-yl)ethyl)amino)pyrimidin-4-yl)-4-((S)-1-fluoroethyl)oxazolidin-2-one] | 20 | < 50 | < 50
C[C@H](Nc1nc(Cl)cc(N2C(=O)OC[C@@H]2[C@H](C)F)n1)c1ncn2c1CCc1cc(C(F)(F)F)ccc1-2 [Compound 7, (R)-3-(6-chloro-2-(((S)-1-(7-trifluoromethyl-4,5-dihydroimidazo[1,5-a]quinolin-3-yl)ethyl)amino)pyrimidin-4-yl)-4-((S)-1-fluoroethyl)oxazolidin-2-one] | 35 | < 50 | < 50
C[C@H](Nc1nccc(N2C(=O)OC[C@@H]2[C@H](C)F)n1)c1ncn2c1sc1cc(C(F)(F)F)ccc12 [Compound 8, (R)-4-((S)-1-fluoroethyl)-3-(2-(((S)-1-(6-trifluoromethylbenzo[d]imidazo[5,1-b]thiazol-3-yl)ethyl)amino)pyrimidin-4-yl)oxazolidin-2-one] | 10 | < 50 | < 50
CC(C)[C@H]1COC(=O)N1c1ccnc(N[C@@H](C)c2ncn3c2CCCc2cc(C(F)(F)F)ccc2-3)n1 [Compound 9, (S)-4-isopropyl-3-(2-(((S)-1-(8-trifluoromethyl-5,6-dihydro-4H-benzo[f]imidazo[1,5-a]azepin-3-yl)ethyl)amino)pyrimidin-4-yl)oxazolidin-2-one] | 45 | < 50 | 50 to 500
CC1Cc2c([C@H](C)Nc3nccc(N4C(=O)OC[C@@H]4[C@H](C)F)n3)ncn2-c2ccc(C(F)(F)F)cc21 (stereo partly drawn) [Compound 10, (4R)-4-((S)-1-fluoroethyl)-3-(2-(((1S)-1-(5-methyl-7-trifluoromethyl-4,5-dihydroimidazo[1,5-a]quinolin-3-yl)ethyl)amino)pyrimidin-4-yl)oxazolidin-2-one] | – | 50 to 500 | 50 to 500
C[C@H](Nc1nccc(N2C(=O)OC[C@@H]2[C@H](C)F)n1)c1ncn2c1CCc1cc(F)ccc1-2 [Compound 11] | – | < 50 | 50 to 500
CC(C)[C@H]1COC(=O)N1c1ccnc(N[C@@H](C)c2ncn3c2CSc2cc(C(F)(F)F)ccc2-3)n1 [Compound 12, (S)-4-isopropyl-3-(2-(((S)-1-(7-trifluoromethyl-4H-benzo[b]imidazo[1,5-d][1,4]thiazin-3-yl)ethyl)amino)pyrimidin-4-yl)oxazolidin-2-one] | 24 | < 50 | < 50
C[C@H](Nc1nccc(N2C(=O)OC[C@@H]2[C@H](C)F)n1)c1ncn2c1CCCc1cc(C(F)(F)F)ccc1-2 [Compound 13, (R)-4-((S)-1-fluoroethyl)-3-(2-(((S)-1-(8-trifluoromethyl-5,6-dihydro-4H-benzo[f]imidazo[1,5-a]azepin-3-yl)ethyl)amino)pyrimidin-4-yl)oxazolidin-2-one] | 35 | < 50 | < 50
CC1Cc2cc(C(F)(F)F)ccc2-n2cnc([C@H](C)Nc3nccc(N4C(=O)OC[C@@H]4[C@H](C)F)n3)c21 (stereo partly drawn) [Compound 14, (4R)-4-((S)-1-fluoroethyl)-3-(2-(((1S)-1-(4-methyl-7-trifluoromethyl-4,5-dihydroimidazo[1,5-a]quinolin-3-yl)ethyl)amino)pyrimidin-4-yl)oxazolidin-2-one] | – | 50 to 500 | 50 to 500
CC1Oc2cc(C(F)(F)F)ccc2-n2cnc([C@H](C)Nc3nccc(N4C(=O)OC[C@@H]4[C@H](C)F)n3)c21 (stereo partly drawn) [Compound 15, (4R)-4-((S)-1-fluoroethyl)-3-(2-(((1S)-1-(4-methyl-7-trifluoromethyl-4H-benzo[b]imidazo[1,5-d][1,4]oxazin-3-yl)ethyl)amino)pyrimidin-4-yl)oxazolidin-2-one] | – | 50 to 500 | 50 to 500
C[C@H](Nc1nccc(N2CC3(CC3)OC2=O)n1)c1ncn2c1CCc1cc(C(F)(F)F)ccc1-2 [Compound 19, (S)-6-(2-((1-(7-trifluoromethyl-4,5-dihydroimidazo[1,5-a]quinolin-3-yl)ethyl)amino)pyrimidin-4-yl)-4-oxa-6-azaspiro[2.4]heptan-5-one] | – | > 500 | > 500
C[C@H](Nc1nccc(N2C(=O)OC[C@@H]2[C@H](C)F)n1)c1ncn2c1COc1cc(F)ccc1-2 [Compound 24, (R)-3-(2-(((S)-1-(7-fluoro-4H-benzo[b]imidazo[1,5-d][1,4]oxazin-3-yl)ethyl)amino)pyrimidin-4-yl)-4-((S)-1-fluoroethyl)oxazolidin-2-one] | – | < 50 | < 50
COc1ccc2c(c1)OCc1c([C@H](C)Nc3nccc(N4C(=O)OC[C@@H]4[C@H](C)F)n3)ncn1-2 [Compound 25, (R)-4-((S)-1-fluoroethyl)-3-(2-(((S)-1-(7-methoxy-4H-benzo[b]imidazo[1,5-d][1,4]oxazin-3-yl)ethyl)amino)pyrimidin-4-yl)oxazolidin-2-one] | – | 50 to 500 | 50 to 500
C[C@H](Nc1nccc(N2C(=O)OC[C@@H]2[C@H](C)F)n1)c1ncn2c1COc1cc(C#N)ccc1-2 [Compound 27, 3-((S)-1-((4-((R)-4-((S)-1-fluoroethyl)-2-oxyoxazolidin-3-yl)pyrimidin-2-yl)amino)ethyl)-4H-benzo[b]imidazo[1,5-d][1,4]oxazin-7-nitrile] | – | 50 to 500 | 50 to 500
C[C@H](Nc1nccc(N2C(=O)OC[C@@H]2[C@H](C)F)n1)c1ncn2c1CCc1c(Cl)cccc1-2 [Compound 29, (R)-3-(2-(((S)-1-(6-chloro-4,5-dihydroimidazo[1,5-a]quinolin-3-yl)ethyl)amino)pyrimidin-4-yl)-4-((S)-1-fluoroethyl)oxazolidin-2-one] | – | 50 to 500 | < 50
